row,melting point,SMILES
1,140 to 142 °C,CS(=O)(=O)c1ccc(-n2nc(C(F)(F)F)cc2-c2ccc(-c3ncco3)cc2)cc1F
2,110 to 111 °C,CC[Si](CC)(CC)OC1CCCc2cnc3ccc(OCc4ccccc4[N+](=O)[O-])cc3c21 (stereo not given)
3,189 to 190 °C,CCCn1cncc1CSc1nc2ccc([N+](=O)[O-])cc2[nH]1
4,135 to 136 °C,CCNC(=O)c1cc2ccc(OC)cc2n1CCNC(C)=O
5,225 to 227 °C,CC(C)(C)n1nc(Nc2ccccc2)c(C(N)=O)c1N
6,182 to 186 °C,C=CCc1cn2c(=O)c(C(=O)OCC)cnc2c2cc(OC)ccc12
7,81 to 83 °C,COC(=O)CCc1cc2cc(C(F)(F)F)ccc2n1S(=O)(=O)c1ccccc1
8,170 to 171 °C,CC(C)C(=O)Nc1c(C(=O)c2occc2CO)[nH]c2cc(Cl)ccc12
9,96 to 98 °C,CCCCCOC(=O)c1ccc(S(N)(=O)=O)cc1
10,143 to 144 °C,COc1ccnc(CCc2nc3c(C)ccnc3[nH]2)c1
11,129 to 130 °C,Cc1c(OCCSCc2ccco2)ccnc1CNc1ncncc1Cl
12,184 to 185 °C,CC(C)N(c1cccc2cc(-c3ncc(CCl)s3)[nH]c12)S(=O)(=O)c1cccs1
13,169 to 170 °C,CCCOC(Cc1ccc(OCc2nc(C(C)(C)C)oc2C)c2ccccc12)C(=O)O (stereo not given)
14,94 to 96 °C,Cc1cc(CCCCCOc2ccc(C3=NCCO3)cc2C=CBr)on1
15,38 to 42 °C,CCCc1nc(C)cn1-c1cc(F)ccc1N

# Continued, compound first:
row,SMILES,melting point
1,N=C(N)Nc1nc(CO)cs1,163 to 165 °C
2,c1cc2[nH]ncc2cc1OC1CCOCC1,151 to 153 °C
3,CC(=O)OC1CSC(Oc2cnccc2C(F)(F)F)C(OC(C)=O)C1OC(C)=O (stereo not given),198 °C
4,COc1cc(OC)cc(C(=O)NNC(=O)Nc2cccc3c2C(=O)c2c-3n[nH]c2-c2ccc(N3CCNCC3)cc2)c1,> 300 °C
5,CCCCCCCCOC(=O)CS(=O)(=O)Nc1c(C(C)C)cccc1C(C)C,56 to 58 °C
6,CCOC(=O)[C@H](Cc1ccc(O)cc1)NC(=O)c1c(F)cccc1F,149 to 150 °C
7,COC(=O)c1nc(C)ccc1OC,55 to 57 °C
8,CC(C)(C)OC(=O)NCC(O)c1ccccc1 (stereo not given),123 to 124 °C
9,CC(C)(C)c1nnc2ccc(OCCCN3CCC(OC(c4ccccc4)c4ccccc4)CC3)nn12,125 to 127 °C
10,CCCCOC(=O)C(NC(=O)OCc1ccccc1)c1cccs1 (stereo not given),37 °C
11,O=C(C(=O)N1CCC(Oc2ccc(F)cc2)CC1)c1c[nH]c2ccccc12,205 to 207 °C
12,Nc1cccc2c1C(=O)c1c(O)cccc1C2=O,305 to 308 °C
13,OCCCCCCCCN1CCC(C(O)(c2ccc(F)cc2)c2ccc(F)cc2)CC1,124 to 125 °C
14,CC(=O)NCc1ccc(CN2CCN(c3ccc(F)cc3N)CC2)cc1,139 to 140 °C
15,CN1CCN(c2cccc3c2C[C@H](NC(=O)c2cccc(Oc4ccccc4)c2)CC3)CC1,136 to 137 °C
16,CSC(=S)N1CCN(Cc2cc(OC(C)=O)ccc2O)CC1,124 °C
17,O=C(Nc1ccccc1S(=O)(=O)c1ccccc1)N[C@@H](Cc1ccc(Nc2nccc3ccncc23)cc1)C(=O)O,184 °C
18,O=C(O)COCC(=O)NC12CC3CC(CC(C3)C1)C2,181 to 183 °C
19,ClC1=NC(Cl)(C(Cl)(Cl)Cl)N=C1Cl,66 to 68 °C
20,CN1CCC(N2CCN(c3cccc(-c4cn[nH]c4N)c3)CC2)CC1,213 to 220 °C
21,Cn1c(=O)oc2cc3c(cc21)C1(CO3)C(=O)N(C(c2ccccc2)c2ccccc2)c2ccccc21 (stereo not given),> 250 °C
22,C[C@@H](c1ccc(-c2ncc(C(=O)N(C)C)s2)cc1)N1CC[C@](CC(C)(C)O)(c2ccccc2)OC1=O,110 to 112 °C
23,CCCCCCCCCCc1ccnc(C(=O)NCC(=O)OCC)c1,29 to 30 °C
24,Oc1ccc2c(c1)CC(n1cc[nH]c1=S)CC2 (stereo not given),248 to 250 °C
25,CN(C)S(=O)(=O)C(Br)(Br)S(=O)(=O)c1ccccc1,144 to 145 °C
